From ChEMBL document CHEMBL1201862, “PubChem BioAssay data set” (2004)
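Five concentrations, 48 hours, 96-well plates. GI50 = concentration required for 50% inhibition of growth.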 Active and inactive are the calls of the source. Rule as the data show it: active = GI50 up to about 1.1 µM and inactive = higher.

Tests used:
Assay in all cases: NCI tumour cell line growth inhibition, 48 h
[1] = test system: A549
[2] = test system: ACHN
[3] = test system: EKVX
[4] = test system: HCT-15
[5] = test system: HOP-92
[6] = test system: HT-29
[7] = test system: KM12
[8] = test system: LOX IMVI
[9] = test system: MDA-MB-231
[10] = test system: MDA-MB-435
[11] = test system: Malme-3M
[12] = test system: NCI-H460
[13] = test system: OVCAR-4
[14] = test system: OVCAR-8
[15] = test system: RXF 393
[16] = test system: SF-268
[17] = test system: SF-539
[18] = test system: SK-MEL-2
[19] = test system: SW-620
[20] = test system: UACC-257

| Compound | GI50 [1] | GI50 [2] | GI50 [3] | GI50 [4] | GI50 [5] | GI50 [6] | GI50 [7] | GI50 [8] | GI50 [9] | GI50 [10] | GI50 [11] | GI50 [12] | GI50 [13] | GI50 [14] | GI50 [15] | GI50 [16] | GI50 [17] | GI50 [18] | GI50 [19] | GI50 [20] |
| --- | --- | --- | --- | --- | --- | --- | --- | --- | --- | --- | --- | --- | --- | --- | --- | --- | --- | --- | --- | --- |
| CCC1C(c2cc(OC)c(OC)c(OC)c2)c2cc3c(cc2OC1N1CCCC1)OCO3 (stereo unspecified) | 2.76 µM (inactive) | 4.03 µM (inactive) | 7.28 µM (inactive) | 0.984 µM | 4.18 µM (inactive) | 1.37 µM (inactive) | 0.743 µM (active) | 2.57 µM (inactive) | 3.83 µM (inactive) | 0.277 µM (active) | 6.98 µM (inactive) | 2.84 µM (inactive) | 12.7 µM (inactive) | 4.07 µM (inactive) | 1.45 µM (inactive) | 4.58 µM (inactive) | 1.39 µM (inactive) | 1.98 µM (inactive) | 1.21 µM (inactive) | 4.59 µM (inactive) |
| CC(C)CCC1(CCN)C(=O)NC(=O)NC1=O | > 100 µM (inactive) | > 100 µM (inactive) | > 100 µM (inactive) | > 100 µM | > 100 µM (inactive) | > 100 µM (inactive) | > 100 µM (inactive) | > 100 µM (inactive) | > 100 µM (inactive) | > 100 µM (inactive) | > 100 µM (inactive) | > 100 µM (inactive) | > 100 µM (inactive) | > 100 µM (inactive) | > 100 µM (inactive) | > 100 µM (inactive) | > 100 µM (inactive) | > 100 µM (inactive) | > 100 µM (inactive) | > 100 µM (inactive) |
| O=C(O)CCNCC(=O)O | > 100 µM (inactive) | > 100 µM (inactive) | > 100 µM (inactive) | > 100 µM | > 100 µM (inactive) | > 100 µM (inactive) | > 100 µM (inactive) | > 100 µM (inactive) | > 100 µM (inactive) | > 100 µM (inactive) | > 100 µM (inactive) | > 100 µM (inactive) | – | > 100 µM (inactive) | > 100 µM (inactive) | > 100 µM (inactive) | > 100 µM (inactive) | > 100 µM (inactive) | > 100 µM (inactive) | > 100 µM (inactive) |
| CCOC(=O)C1=C(C)NC(=O)NC1c1coc2cc(C)cc(C)c2c1=O (stereo unspecified) | 46.9 µM (inactive) | > 81.3 µM (inactive) | 31.6 µM (inactive) | 25 µM | > 74.3 µM (inactive) | 32.1 µM (inactive) | 30 µM (inactive) | 69.2 µM (inactive) | > 61.5 µM (inactive) | 4.5 µM (inactive) | 13 µM (inactive) | 25.9 µM (inactive) | 55.3 µM (inactive) | 64.1 µM (inactive) | 25.4 µM (inactive) | 57.5 µM (inactive) | 75.9 µM (inactive) | > 43.8 µM (inactive) | 32.1 µM (inactive) | 40.2 µM (inactive) |
| O=[N+]([O-])c1ccc(/C(=N/c2ccccc2)SS/C(=N\c2ccccc2)c2ccc([N+](=O)[O-])o2)o1 | 1.91 µM (inactive) | 1.91 µM (inactive) | 1.77 µM (inactive) | 0.552 µM | 2.93 µM (inactive) | 1.35 µM (inactive) | 1.68 µM (inactive) | 1.49 µM (inactive) | 2.74 µM (inactive) | 2.1 µM (inactive) | 2.31 µM (inactive) | 1.33 µM (inactive) | 1.47 µM (inactive) | 1.52 µM (inactive) | 1.75 µM (inactive) | 1.8 µM (inactive) | 0.83 µM (active) | 2.51 µM (inactive) | 0.425 µM (active) | 2.11 µM (inactive) |
| Cc1cc(C)c(S(=O)(=O)N2CCCN(S(=O)(=O)c3c(C)cc(C)cc3C)OCCCO2)c(C)c1 | > 100 µM (inactive) | > 100 µM (inactive) | > 100 µM (inactive) | > 100 µM | 47.1 µM (inactive) | > 100 µM (inactive) | > 100 µM (inactive) | > 100 µM (inactive) | > 100 µM (inactive) | > 100 µM (inactive) | > 100 µM (inactive) | > 100 µM (inactive) | 79.4 µM (inactive) | > 100 µM (inactive) | > 100 µM (inactive) | > 100 µM (inactive) | – | > 100 µM (inactive) | > 100 µM (inactive) | 45.9 µM (inactive) |
| Cc1ccc(S(=O)(=O)N/N=C/C(Br)=C(/Br)C(=O)O)cc1 | 19.5 µM (inactive) | 2.71 µM (inactive) | 10.2 µM (inactive) | 2.19 µM | 11.3 µM (inactive) | 5.16 µM (inactive) | 10.6 µM (inactive) | 3.03 µM (inactive) | 14.8 µM (inactive) | 4.43 µM (inactive) | 4.39 µM (inactive) | 17.5 µM (inactive) | 6.22 µM (inactive) | 2.6 µM (inactive) | 2.21 µM (inactive) | 11.4 µM (inactive) | 5.69 µM (inactive) | 14.6 µM (inactive) | 2.2 µM (inactive) | 12.1 µM (inactive) |
| COc1ccc(C2NC(=O)Nc3c2c(=O)oc2c3ccc3ccccc32)cc1 (stereo unspecified) | 48.4 µM (inactive) | 51.6 µM (inactive) | 23.7 µM (inactive) | 46.1 µM | 35.2 µM (inactive) | 77.6 µM (inactive) | 57 µM (inactive) | 74.6 µM (inactive) | 54 µM (inactive) | 56.5 µM (inactive) | 68.9 µM (inactive) | 50.8 µM (inactive) | 48 µM (inactive) | 66.8 µM (inactive) | 42 µM (inactive) | 56.4 µM (inactive) | 83 µM (inactive) | 26.4 µM (inactive) | > 100 µM (inactive) | > 100 µM (inactive) |
| COc1ccc(-c2cc(-c3ccc(Nc4ccnc5cc(Cl)ccc45)cc3)[nH]c(=O)c2C#N)c2ccccc12 | 18.1 µM (inactive) | 27.5 µM (inactive) | > 77.1 µM (inactive) | 8.45 µM | 3.84 µM (inactive) | 2 µM (inactive) | 3.47 µM (inactive) | 1.36 µM (inactive) | 3.29 µM (inactive) | 1.87 µM (inactive) | 2.23 µM (inactive) | 11.1 µM (inactive) | 1.79 µM (inactive) | 2.3 µM (inactive) | 5.05 µM (inactive) | 12.7 µM (inactive) | 1.82 µM (inactive) | 14.1 µM (inactive) | 3.51 µM (inactive) | 24.9 µM (inactive) |
| O=C1C(Br)=CC2(C=C1Br)CCNC1=C2C(=O)c2ncccc2C1=O | 1.44 µM (inactive) | 0.56 µM (active) | 1.65 µM (inactive) | 0.618 µM | 1.82 µM (inactive) | 1.99 µM (inactive) | 1.25 µM (inactive) | 0.313 µM (active) | 1.75 µM (inactive) | 0.189 µM (active) | 1.09 µM (active) | 0.308 µM (active) | 1.22 µM (inactive) | 1.44 µM (inactive) | 1 µM (active) | 1.49 µM (inactive) | 0.318 µM (active) | 0.116 µM (active) | 1.1 µM (active) | 0.631 µM (active) |
| N#C[C@](CO)(NC(=O)OCc1ccccc1)C(F)F | > 100 µM (inactive) | > 100 µM (inactive) | > 100 µM (inactive) | > 100 µM | > 100 µM (inactive) | > 100 µM (inactive) | > 100 µM (inactive) | > 100 µM (inactive) | > 100 µM (inactive) | > 100 µM (inactive) | > 100 µM (inactive) | > 100 µM (inactive) | > 100 µM (inactive) | > 100 µM (inactive) | > 100 µM (inactive) | > 100 µM (inactive) | – | > 100 µM (inactive) | > 100 µM (inactive) | > 100 µM (inactive) |
| Nc1ncnc2c1ncn2C1OC(CO)C(O)C1NS(=O)(=O)c1ccccc1 (stereo unspecified) | > 100 µM (inactive) | > 100 µM (inactive) | > 100 µM (inactive) | > 100 µM | > 100 µM (inactive) | > 100 µM (inactive) | > 100 µM (inactive) | > 100 µM (inactive) | > 100 µM (inactive) | > 100 µM (inactive) | > 100 µM (inactive) | > 100 µM (inactive) | > 100 µM (inactive) | > 100 µM (inactive) | > 100 µM (inactive) | > 100 µM (inactive) | > 100 µM (inactive) | > 100 µM (inactive) | > 100 µM (inactive) | > 100 µM (inactive) |
| Cc1cccc(Cl)c1NCC(O)CN1CCN(C)CC1 (stereo unspecified) | > 100 µM (inactive) | > 100 µM (inactive) | > 100 µM (inactive) | > 100 µM | > 100 µM (inactive) | > 100 µM (inactive) | > 100 µM (inactive) | > 100 µM (inactive) | > 100 µM (inactive) | > 100 µM (inactive) | > 100 µM (inactive) | > 100 µM (inactive) | > 100 µM (inactive) | > 100 µM (inactive) | > 100 µM (inactive) | > 100 µM (inactive) | – | > 100 µM (inactive) | > 100 µM (inactive) | > 100 µM (inactive) |
| Cc1cccc(NC(=O)c2cccc([N+](=O)[O-])c2O)c1C | 21.5 µM (inactive) | 28.6 µM (inactive) | 26.7 µM (inactive) | 31.4 µM | 16.4 µM (inactive) | 27.7 µM (inactive) | 23.6 µM (inactive) | 23 µM (inactive) | 37.9 µM (inactive) | 29.2 µM (inactive) | 33.8 µM (inactive) | 20.6 µM (inactive) | 26.6 µM (inactive) | 33.7 µM (inactive) | 12.6 µM (inactive) | 33.2 µM (inactive) | 27.5 µM (inactive) | 4.92 µM (inactive) | 37.9 µM (inactive) | 24.9 µM (inactive) |
